From PubChem BioAssay (NCI)
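Abbreviation: GI50, concentration required for 50% inhibition of growth. TGI: total growth inhibition.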

How the values were obtained:
Test in all cases: inhibition of tumour cell growth, NCI panel, 384-well format
[1] = system: 786-0 renal
[2] = system: A498 renal
[3] = system: A549 NSCLC
[4] = system: ACHN renal
[5] = system: BT-549 breast
[6] = system: CAKI-1 renal
[7] = system: COLO 205 colon
[8] = system: DU-145 prostate
[9] = system: EKVX NSCLC
[10] = system: HCT-116 colon
[11] = system: HCT-15 colon
[12] = system: HL-60(TB) leukemia
[13] = system: HOP-62 NSCLC
[14] = system: HOP-92 NSCLC
[15] = system: HS 578T breast
[16] = system: HT29 colon
[17] = system: IGROV1 ovarian
[18] = system: K-562 leukemia
[19] = system: KM12 colon
[20] = system: M14 melanoma
[21] = system: MALME-3M melanoma
[22] = system: MCF7 breast
[23] = system: MDA-MB-231 breast
[24] = system: MDA-MB-435 melanoma
[25] = system: MDA-MB-468 breast
[26] = system: MOLT-4 leukemia
[27] = system: NCI-H226 lung
[28] = system: NCI-H23 lung
[29] = system: NCI-H322M lung
[30] = system: NCI-H460 NSCLC
[31] = system: NCI-H522 lung
[32] = system: OVCAR-3 ovarian
[33] = system: OVCAR-4 ovarian
[34] = system: OVCAR-5 ovarian
[35] = system: OVCAR-8 ovarian
[36] = system: PC-3 prostate
[37] = system: RXF 393 renal
[38] = system: SF-268 CNS
[39] = system: SF-295 CNS
[40] = system: SF-539 CNS
[41] = system: SK-MEL-2 melanoma
[42] = system: SK-MEL-28 melanoma
[43] = system: SK-MEL-5 melanoma
[44] = system: SK-OV-3 ovarian
[45] = system: SN12C renal
[46] = system: SNB-19 CNS
[47] = system: SNB-75 CNS
[48] = system: SR leukemia
[49] = system: SW-620 colon
[50] = system: T-47D breast
[51] = system: TK-10 renal
[52] = system: U251 glioblastoma
[53] = system: UACC-257 melanoma
[54] = system: UACC-62 melanoma
[55] = system: UO-31 renal

Structure (SMILES): C[C@@H]1Cc2c([nH]c3ccccc23)[C@@H](c2c(F)cc(NC3CN(CCCF)C3)cc2F)N1CC(F)(F)CO
- GI50 [1]: 1.82 µM
- TGI [1]: 3.23 µM
- GI50 [2]: 1.45 µM
- TGI [2]: 2.82 µM
- GI50 [3]: 4.1 µM
- TGI [3]: 14.5 µM
- GI50 [4]: 1.71 µM
- TGI [4]: 3.16 µM
- GI50 [5]: 1.44 µM
- TGI [5]: 2.85 µM
- GI50 [6]: 1.66 µM
- TGI [6]: 3.25 µM
- GI50 [7]: 2.07 µM
- TGI [7]: 3.56 µM
- GI50 [8]: 2.5 µM
- TGI [8]: 6.5 µM
- GI50 [9]: 1.87 µM
- TGI [9]: 6.39 µM
- GI50 [10]: 1.78 µM
- TGI [10]: 3.21 µM
- GI50 [11]: 1.95 µM
- TGI [11]: 3.74 µM
- GI50 [12]: 1.39 µM
- TGI [12]: 2.69 µM
- GI50 [13]: 2.37 µM
- TGI [13]: 6.24 µM
- GI50 [14]: 1.79 µM
- TGI [14]: 3.68 µM
- GI50 [15]: 1.41 µM
- TGI [15]: 2.73 µM
- GI50 [16]: 1.71 µM
- TGI [16]: 3.13 µM
- GI50 [17]: 1.84 µM
- TGI [17]: 4.33 µM
- GI50 [18]: 1.59 µM
- TGI [18]: 2.95 µM
- GI50 [19]: 1.73 µM
- TGI [19]: 3.16 µM
- GI50 [20]: 1.78 µM
- TGI [20]: 3.17 µM
- GI50 [21]: 1.55 µM
- TGI [21]: 2.89 µM
- TGI [22]: 1.41 µM
- GI50 [23]: 3.54 µM
- TGI [23]: 12.1 µM
- GI50 [24]: 1.73 µM
- TGI [24]: 3.11 µM
- GI50 [25]: 1.33 µM
- TGI [25]: 2.75 µM
- GI50 [26]: 1.39 µM
- TGI [26]: 2.68 µM
- GI50 [27]: 2.35 µM
- TGI [27]: 7.78 µM
- GI50 [28]: 5.52 µM
- TGI [28]: 16.9 µM
- GI50 [29]: 2.81 µM
- TGI [29]: 6.54 µM
- GI50 [30]: 1.47 µM
- TGI [30]: 2.86 µM
- GI50 [31]: 2.36 µM
- TGI [31]: 4.63 µM
- GI50 [32]: 1.88 µM
- TGI [32]: 4.05 µM
- GI50 [33]: 1.32 µM
- TGI [33]: 4.65 µM
- GI50 [34]: 4.09 µM
- TGI [34]: 15.4 µM
- GI50 [35]: 2.7 µM
- TGI [35]: 8.09 µM
- GI50 [36]: 1.84 µM
- TGI [36]: 3.88 µM
- GI50 [37]: 1.34 µM
- TGI [37]: 2.88 µM
- GI50 [38]: 1.95 µM
- TGI [38]: 4.11 µM
- GI50 [39]: 1.97 µM
- TGI [39]: 3.68 µM
- GI50 [40]: 1.64 µM
- TGI [40]: 3.25 µM
- GI50 [41]: 1.63 µM
- TGI [41]: 2.98 µM
- GI50 [42]: 1.6 µM
- TGI [42]: 2.96 µM
- GI50 [43]: 1.49 µM
- TGI [43]: 2.82 µM
- GI50 [44]: 1.83 µM
- TGI [44]: 3.91 µM
- GI50 [45]: 4.89 µM
- TGI [45]: 16.5 µM
- GI50 [46]: 10.6 µM
- TGI [46]: 22.4 µM
- GI50 [47]: 1.43 µM
- TGI [47]: 3.22 µM
- GI50 [48]: 1.67 µM
- TGI [48]: 3.03 µM
- GI50 [49]: 1.71 µM
- TGI [49]: 3.12 µM
- GI50 [50]: 1.3 µM
- TGI [50]: 2.69 µM
- GI50 [51]: 1.75 µM
- TGI [51]: 3.26 µM
- GI50 [52]: 1.77 µM
- TGI [52]: 3.32 µM
- GI50 [53]: 1.56 µM
- TGI [53]: 2.91 µM
- GI50 [54]: 1.58 µM
- TGI [54]: 2.95 µM
- GI50 [55]: 1.78 µM
- TGI [55]: 3.81 µM
